From PMC5937091, “Efficacy of Alpha Glucosidase Inhibitor from Marine Actinobacterium in the Control of Postprandial Hyperglycaemia in Streptozotocin (STZ) Induced Diabetic Male Albino Wister Rats” (Iranian Journal of Pharmaceutical Research : IJPR, 2018)
Converted amounts (≈) assume the structure as drawn.

Target: T1, mammalian α-glucosidase (rat α-glucosidase; rat-intestinal acetone powder)
T1 construct: gene Si; crude soluble supernatant of sonicated rat-intestinal acetone powder (Sigma-Aldrich); native, not purified
Test: colorimetric inhibition assay, absorbance at […] nm
Assay type: biochemical
Settings: substrate p-nitrophenyl α-D-glucopyranoside, phosphate buffer pH 6.8, 37 °C (as in screening protocol); mode printed both as competitive and as non-competitive

IC50: 32.08 mg/L (≈ 105 µM)
Compound: CN1C(=O)C(CCl)N(C(=O)OC(C)(C)C)C1C(C)(C)C (stereo not shown) [2-t-butyl-5-chloromethyl-3-methyl-4-oxoimidazolidine-1-carboxylic acid, t-butyl ester]
